Measured values reported in the supplement of paper PMC10307832.

Legend:
Assay in all cases: relative viability (nuclei count vs DMSO), 5 days (fraction); higher = more cells survive
BAY61-3606 + OSI-027 = compound: COC1=C(C=C(C=C1)C2=CC3=NC=CN3C(=N2)NC4=C(C=CC=N4)C(=O)N)OC [BAY61-3606] + COc1cccc2cc(-c3nc([C@H]4CC[C@H](C(=O)O)CC4)n4ncnc(N)c34)[nH]c12 [OSI-027] (partner 0.5 µM)
Method in brief: (§1)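 Cells from lung cancer lines were seeded into 1536-well plates and, one day later, dosed by pin tool. Treatments were either a single drug or a fixed dose of an anchor drug with five library-drug doses (not always all listed) in √10 steps. After 5 days, nuclei were stained in a one-step fixation (final 0.05% Triton X-100, 1% formaldehyde, 1 ug/ml Hoechst) and counted on 4× images, and relative viability is the treated-to-vehicle nuclei ratio, as the median of duplicate plates.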

Doxorubicin + Lapatinib = compound: COc1cccc2c1C(=O)c1c(O)c3c(c(O)c1C2=O)C[C@@](O)(C(=O)CO)C[C@@H]3O[C@H]1C[C@H](N)[C@H](O)[C@H](C)O1 [Doxorubicin] + CS(=O)(=O)CCNCc1ccc(-c2ccc3ncnc(Nc4ccc(OCc5cccc(F)c5)c(Cl)c4)c3c2)o1 [Lapatinib] (partner 2 µM)
Method in brief: as §1

Doxorubicin + Dasatinib = compound: COc1cccc2c1C(=O)c1c(O)c3c(c(O)c1C2=O)C[C@@](O)(C(=O)CO)C[C@@H]3O[C@H]1C[C@H](N)[C@H](O)[C@H](C)O1 [Doxorubicin] + Cc1nc(Nc2ncc(C(=O)Nc3c(C)cccc3Cl)s2)cc(N2CCN(CCO)CC2)n1 [Dasatinib] (partner 0.075 µM)
Method in brief: as §1

BAY61-3606 + Pictilisib = compound: COC1=C(C=C(C=C1)C2=CC3=NC=CN3C(=N2)NC4=C(C=CC=N4)C(=O)N)OC [BAY61-3606] + CS(=O)(=O)N1CCN(Cc2cc3nc(-c4cccc5[nH]ncc45)nc(N4CCOCC4)c3s2)CC1 [Pictilisib] (partner 1 µM)
Method in brief: as §1

Row | Cell Line | relative viability (BAY61-3606 + OSI-027; first compound 0.02 µM) | relative viability (BAY61-3606 + OSI-027; first compound 0.06325 µM) | relative viability (BAY61-3606 + OSI-027; first compound 0.2 µM) | relative viability (BAY61-3606 + OSI-027; first compound 0.6325 µM) | relative viability (BAY61-3606 + OSI-027; first compound 2 µM) | relative viability (Doxorubicin + Lapatinib; first compound 0.001 µM) | relative viability (Doxorubicin + Lapatinib; first compound 0.003162 µM) | relative viability (Doxorubicin + Lapatinib; first compound 0.01 µM) | relative viability (Doxorubicin + Lapatinib; first compound 0.03162 µM) | relative viability (Doxorubicin + Lapatinib; first compound 0.1 µM) | relative viability (Doxorubicin + Dasatinib; first compound 0.001 µM) | relative viability (Doxorubicin + Dasatinib; first compound 0.003162 µM) | relative viability (Doxorubicin + Dasatinib; first compound 0.01 µM) | relative viability (Doxorubicin + Dasatinib; first compound 0.03162 µM) | relative viability (Doxorubicin + Dasatinib; first compound 0.1 µM) | relative viability (BAY61-3606 + Pictilisib; first compound 0.02 µM) | relative viability (BAY61-3606 + Pictilisib; first compound 0.06325 µM) | relative viability (BAY61-3606 + Pictilisib; first compound 0.2 µM) | relative viability (BAY61-3606 + Pictilisib; first compound 0.6325 µM) | relative viability (BAY61-3606 + Pictilisib; first compound 2 µM)
1 | NCI-H727 | 0.604 | 0.559 | 0.71 | 0.688 | 0.513 | 0.76 | 0.784 | 0.792 | 0.666 | 0.681 | 0.271 | 0.46 | 0.305 | 0.368 | 0.329 | 0.443 | 0.4 | 0.392 | 0.386 | 0.267
2 | H3255 | 0.529 | 0.549 | 0.642 | 0.736 | 0.546 | 0.261 | 0.262 | 0.247 | 0.259 | 0.228 | 0.359 | 0.388 | 0.436 | 0.333 | 0.33 | 0.516 | 0.432 | 0.463 | 0.467 | 0.447
3 | NCI-H838 | 0.456 | 0.36 | 0.429 | 0.411 | 0.298 | 1.02 | 1.06 | 0.834 | 0.375 | 0.195 | 0.292 | 0.284 | 0.228 | 0.307 | 0.277 | 0.568 | 0.432 | 0.601 | 0.523 | 0.324
4 | NCI-H2085 | 0.868 | 0.901 | 0.711 | 0.769 | 0.53 | 0.745 | 0.85 | 0.763 | 0.652 | 0.608 | 0.286 | 0.278 | 0.224 | 0.224 | 0.241 | 0.376 | 0.487 | 0.499 | 0.459 | 0.601
5 | NCI-H2405 | 0.676 | 0.63 | 0.64 | 0.756 | 0.65 |  | 1.07 | 1.05 | 0.639 | 0.301 | 0.187 | 0.208 | 0.243 | 0.207 | 0.177 | 0.623 | 0.308 | 0.379 | 0.371 | 0.43
6 | NCI-H2170 | 0.693 | 0.65 | 0.8 | 0.776 | 0.597 | 0.263 | 0.264 | 0.259 | 0.266 | 0.285 | 0.625 | 0.687 | 0.455 | 0.436 | 0.553 | 0.368 | 0.28 | 0.308 | 0.389 | 0.265
7 | NCI-H1944 | 0.403 | 0.377 | 0.363 | 0.373 | 0.352 | 0.872 | 0.827 | 0.857 | 0.693 | 0.841 | 0.18 | 0.206 | 0.216 | 0.165 | 0.174 | 0.384 | 0.346 | 0.337 | 0.326 | 0.281
8 | NCI-H661 | 0.707 | 0.742 | 0.734 | 0.699 | 0.505 | 0.506 | 0.515 | 0.492 | 0.498 | 0.493 | 0.829 | 0.846 | 0.786 | 0.412 | 0.316 | 0.422 | 0.415 | 0.376 | 0.383 | 0.408
9 | NCI-H650 | 0.509 | 0.532 | 0.439 | 0.495 | 0.513 | 0.925 | 0.838 | 0.837 | 0.595 | 0.0014 | 0.432 | 0.473 | 0.503 | 0.461 | 0.355 | 0.984 | 0.722 | 0.798 | 1.01 | 0.596
10 | EKVX | 0.862 | 0.696 | 0.734 | 0.554 | 0.631 | 0.233 | 0.234 | 0.228 | 0.188 | 0.182 | 0.581 | 0.504 | 0.601 | 0.539 | 0.501 | 0.415 | 0.404 | 0.407 | 0.411 | 0.388
11 | SK-MES-1 | 0.604 | 0.674 | 0.56 | 0.706 | 0.405 | 0.423 | 0.444 | 0.489 | 0.396 | 0.409 | 0.458 | 0.396 | 0.325 | 0.141 | 0.128 | 0.393 | 0.337 | 0.333 | 0.354 | 0.315
12 | EPLC-272H | 0.269 | 0.268 | 0.267 | 0.329 | 0.333 | 0.918 | 0.906 | 0.919 | 0.944 | 0.989 | 0.41 | 0.418 | 0.371 | 0.417 | 0.343 | 0.442 | 0.373 | 0.264 | 0.25 | 0.248
13 | NCI-H1650 | 0.702 | 0.442 | 0.666 | 0.686 | 0.396 | 0.208 | 0.612 | 0.25 | 0.202 | 0.14 | 0.37 | 0.321 | 0.301 | 0.149 | 0.11 | 0.728 | 0.493 | 0.68 | 0.564 | 0.402
14 | NCI-H1395 | 0.721 | 0.581 | 0.601 | 0.635 | 0.629 | 0.921 | 0.986 | 0.949 | 0.803 | 0.607 | 0.415 | 0.422 | 0.389 | 0.398 | 0.376 | 0.777 | 0.524 | 0.584 | 0.641 | 0.559
15 | NCI-H2228 | 0.885 | 0.451 | 0.594 | 0.495 | 0.293 | 0.971 | 0.962 | 0.65 | 0.187 | 0.119 | 0.45 | 0.598 | 0.483 | 0.229 | 0.112 | 0.432 | 0.34 | 0.421 | 0.505 | 0.341
16 | NCI-H2023 | 0.471 | 0.359 | 0.37 | 0.402 | 0.19 | 0.226 | 0.734 | 0.252 | 0.134 | 0.11 | 0.672 | 0.588 | 0.431 | 0.173 | 0.0859 | 0.275 | 0.264 | 0.277 | 0.251 | 0.206
